Measured values: PubChem BioAssay (NCI)
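96-well plates; 48 h exposure; 5 concentrations. Endpoints by linear interpolation between flanking doses. Not reached: highest tested concentration assigned. At the GI50, growth is halved. TGI marks complete inhibition of growth.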

Experiments:
Test in all cases: DTP human tumour cell line panel, 48 h
EKVX NSCLC = test system: EKVX NSCLC
HS 578T breast = test system: HS 578T breast
K-562 leukemia = test system: K-562 leukemia
KM12 colon = test system: KM12 colon
MOLT-4 leukemia = test system: MOLT-4 leukemia
NCI-H460 lung = test system: NCI-H460 lung
OVCAR-3 ovarian = test system: OVCAR-3 ovarian
SK-MEL-5 melanoma = test system: SK-MEL-5 melanoma
SNB-75 CNS = test system: SNB-75 CNS
UO-31 renal = test system: UO-31 renal

| Compound | GI50 (EKVX NSCLC) [µM] | TGI (EKVX NSCLC) [µM] | GI50 (HS 578T breast) [µM] | TGI (HS 578T breast) [µM] | GI50 (K-562 leukemia) [µM] | TGI (K-562 leukemia) [µM] | GI50 (KM12 colon) [µM] | TGI (KM12 colon) [µM] | GI50 (MOLT-4 leukemia) [µM] | TGI (MOLT-4 leukemia) [µM] | GI50 (NCI-H460 lung) [µM] | TGI (NCI-H460 lung) [µM] | GI50 (OVCAR-3 ovarian) [µM] | TGI (OVCAR-3 ovarian) [µM] | GI50 (SK-MEL-5 melanoma) [µM] | TGI (SK-MEL-5 melanoma) [µM] | GI50 (SNB-75 CNS) [µM] | TGI (SNB-75 CNS) [µM] | GI50 (UO-31 renal) [µM] | TGI (UO-31 renal) [µM] |
| --- | --- | --- | --- | --- | --- | --- | --- | --- | --- | --- | --- | --- | --- | --- | --- | --- | --- | --- | --- | --- |
| Cc1ccc(Nc2ccnc(Nc3cccc(C(N)=O)c3)n2)cc1O | 9.2 | > 25 | 0.742 | 8.98 | 1.34 | > 25 | 7.27 | > 25 | 10.5 | > 25 | 11.4 | > 25 | 6.65 | > 25 | 6.63 | > 21.6 | 0.431 | 3.93 | 0.846 | 11.9 |
| NC(=O)c1ccc(-c2c3ccccc3cc3c2ccc2ccccc23)cc1 | 9.35 | > 100 | 2 | 7.08 | 1.5 | > 100 | 1.32 | 15.2 | 5.5 | > 100 | 3.31 | 14.9 | 1.94 | 6.98 | 3.1 | 14 | 2.19 | 9.15 | 7.1 | 39.5 |
| CC(C)=CCC[C@](C)(O)[C@H]1CC[C@]2(C)[C@@H]1CC[C@@H]1[C@@]3(C)CC[C@H](OC(=O)CCC(=O)O)C(C)(C)[C@@H]3CC[C@]12C | 37.9 | > 100 | 45.8 | > 100 | 23.8 | > 100 | 18.5 | 41.2 | 21 | 94 | 36.4 | > 100 | 15.9 | 30.9 | 17.8 | 43.2 | > 100 | > 100 | 13.7 | 28 |
| COCCn1cc(-c2csc(-c3c[nH]c4ccc(F)cc34)n2)c2cccnc21 | 1.98 | > 100 | 8.82 | > 100 | 2.12 | > 100 | 1.77 | > 100 | 5.56 | > 100 | 3.38 | > 100 | 3.34 | > 100 | 2.69 | > 100 | 2.97 | > 100 | 4.41 | > 100 |
| COc1cc(C=NCC(=O)CSC(c2ccccc2)c2ccccc2)cc(OC)c1OC | 27.8 | > 100 | 19 | 59.4 | 8.63 | 93.7 | 25.3 | 82.1 | 6.96 | 89.9 | 13 | > 100 | 13.3 | > 100 | 11.8 | 24.4 | 25.5 | > 100 | 22.6 | > 100 |
| CC(C)(C)c1ccc(C(O)(c2ccc(C(C)(C)C)cc2)c2ccc(C(C)(C)C)cc2)cc1 |  | > 100 |  | > 100 |  | > 100 |  | > 100 |  | > 100 |  | > 100 |  | > 100 |  | > 100 |  | > 100 |  | > 100 |
| Cc1cc(C#Cc2ccccc2)ccc1-n1c(/C=C/c2ccc(O)cc2)nc2ccccc2c1=O | 2.43 | > 100 | 2.48 | 49.5 | 2 | > 100 | 3.24 | 12.6 | 2.36 | 8.33 | 2.22 | 6.18 | 3.6 | 25.7 | 1.77 | 3.83 | 3.66 | 38.4 | 2.06 | 7.65 |
| O=C(O)CCN1C(=O)/C(=C/C(Cl)=C/c2ccccc2)SC1=S | 3.75 | 14.2 | 3.18 | 17.3 | 1.88 | 6.26 | 2.01 | 4.64 | 1.98 | 8.12 | 3.21 | 10.8 | 2.41 | 7.01 | 1.84 | 3.47 | 1.79 | 10.1 | 1.56 | 3.06 |
